{"source": "BindingDB's records for doi:10.1016/j.bmcl.2009.11.060", "about": "(Glaxosmithkline, 2010)", "note": "pIC50: −log10 of the molar value.", "data": [{"test": "Inhibition of GSK3-beta phosphorylation in human BT474 cells", "values": [{"smiles": "Cc1n[nH]c2ccc(-c3cc(OC[C@@H](N)Cc4c[nH]c5ccccc45)cnc3-c3ccoc3)nc12", "note": "[(S)-1-(6-(furan-3-yl)-5-(3-methyl-1H-pyrazolo[4,3-b]pyridin-5-yl)pyridin-3-yloxy)-3-(1H-indol-3-yl)propan-2-amine]", "pIC50": 5.41}, {"smiles": "Cc1n[nH]c2ncc(-c3cc(OC[C@@H](N)Cc4c[nH]c5ccccc45)cnc3-c3ccoc3)cc12", "note": "[(S)-1-(6-(furan-3-yl)-5-(3-methyl-1H-pyrazolo[3,4-b]pyridin-5-yl)pyridin-3-yloxy)-3-(1H-indol-3-yl)propan-2-amine]", "pIC50": 6.59}, {"smiles": "Cc1n[nH]c2cnc(-c3cc(OC[C@@H](N)Cc4c[nH]c5ccccc45)cnc3-c3ccoc3)cc12", "note": "[(S)-1-(6-(furan-3-yl)-5-(3-methyl-1H-pyrazolo[3,4-c]pyridin-5-yl)pyridin-3-yloxy)-3-(1H-indol-3-yl)propan-2-amine]", "pIC50": 7.19}, {"smiles": "Cc1n[nH]c2ncc(-c3cc(OC[C@@H](N)Cc4c[nH]c5ccccc45)cnc3-c3ccoc3)nc12", "note": "[(S)-1-(6-(furan-3-yl)-5-(3-methyl-1H-pyrazolo[4,3-b]pyrazin-5-yl)pyridin-3-yloxy)-3-(1H-indol-3-yl)propan-2-amine]", "pIC50": 6.80}]}]}
